Measurements published in US20100197610A1, “FRUCTOSE 1, 6 BISPHOSPHATE - A NOVEL ANTICONVULSANT DRUG” (Baylor College of Medicine, priority 2007, published 2010).

Experiments:
[1] = tested on: kainic acid-induced seizures; experiment: Kainic acid model of acute seizures; format: in vivo, Sprague Dawley rats; conditions: for animals with mild seizures (wet dog shakes or head bobbing) / animals with severe seizures: 8 animals
Protocol: (§1) All animal experiments were carried out in accordance with the National Institutes of Health guide for the care and use of laboratory animals (NIH publication 8023, revised 1996) and with the approval of the local Animal Use Committee. Unless indicated, all chemicals were obtained from Sigma Chemical Co (St. Louis Mo.). Male, Sprague Dawley rats weighing 50-74 g (young) or 147-309 g (adult) were used in this study. Acute seizures were induced by kainic acid (KA; Ocean Produce Int., Canada), pilocarpine or pentylenetetrazole (PTZ) as previously described (Lian et al 2006). These models were chosen because they initiate seizures by different mechanisms and the seizures have a relatively gradual onset compared to seizures initiated by stimulation. There was no difference in the body weight of the animals receiving the different convulsants. For pilocarpine, kainic acid and PTZ, the mean weights were 219±5 g (range 163-275 g), 215±7 g (range 183-258 g), and 216±13 g (range 147-309 g), respectively. The animals in the drug treatment groups were not different in weight from the animals in the control groups.
(§2) After administration of KA (10 mg/kg, ip), pilocarpine (scopolamine methyl bromide 1 mg/kg, s.c followed 15 min later by 300 mg/kg, ip pilocarpine) or PTZ (50 mg/kg, ip) (Lian et al., 2006), animals were continuously monitored for seizure activity for at least 5 h after KA or pilocarpine and for 30 min after PTZ. Behavioral seizures were scored by an investigator blinded to the treatment. Latency to the first wet dog shake after KA, latency to the first forelimb clonus (after pilocarpine, kainic acid or PTZ) and the score and duration of seizures were measured. When at least 1 hour had passed without any head bobbing (for pilocarpine) or any wet dog shakes (for KA), seizures were considered over. Status epilepticus lasting longer than 4 hours (for KA) or 5 hours (for pilocarpine) were assigned 4 and 5 hours for seizure duration. For animals receiving PTZ, the seizure duration was defined as the period of tonic-clonic seizures. EEG recording in the hippocampus was conducted as previously described (Lian et al., 2004). After anesthesia, a recording electrode was placed in a burr hole centered at 3.0 mm posterior to bregma, 1.8 mm lateral to the midline and then lowered 3.0 mm. A ground screw and wire was placed over the frontal region in another burr hole. This assembly was fixed to the skull with dental cement.
Each animal was assigned the score of the most severe seizure observed. The behavioral seizures induced by KA or pilocarpine were scored according to an adjusted version of the scale of Racine (Bough et al., 2002): stage 1, wet dog shakes after KA or trembling after pilocarpine; stage 2, head bobbing and stereotypes; stage 3, unilateral forelimb clonus; stage 4, bilateral forelimb clonus; stage 5, rearing and falling; stage 6, jumping and/or running followed by falling. Death within 24 h was assigned stage 7.
Adult rats received either D-F1,6BP, sodium valproate (VPA, 0.3 g/kg), 2-DG (0.25, 0.5 g/kg) or normal saline (vehicle) intraperitoneally followed 1 h later by one of the convulsants. The dose for VPA was based on experimental evidence that doses from 0.1 to 0.4 g/kg (ip) are effective in animal models (Bough and Eagles, 2001; Manent et al., 2007). Three doses of F1,6BP (0.25, 0.5 and 1 g/kg) were tested with this dosing schedule. Two additional groups were administered F1,6BP (0.5 or 1 g/kg, n=5) after pilocarpine. In this experiment, the F1,6BP was given intraperitoneally at the first behavioral seizure, which was chewing movements of the jaw. Two additional sets of animals were fed the classic ketogenic diet (No. F3666; Bio-Serv, Frenchtown, N.J.). One set of animals was given the diet beginning on postnatal day 22-26 (KD-Yng) and maintained on this diet for 4 weeks. Thus the seizures were tested in this group when the animals had reached approximately the same age (50-54 days) as the majority of the animals tested. […]

[2] = tested on: PTZ-induced generalized tonic-clonic seizures; experiment: PTZ model of acute seizures; format: in vivo, Sprague Dawley rats
Protocol: as §1, §2
Adult rats received either D-F1,6BP, sodium valproate (VPA, 0.3 g/kg), 2-DG (0.25, 0.5 g/kg) or normal saline (vehicle) intraperitoneally followed 1 h later by one of the convulsants. The dose for VPA was based on experimental evidence that doses from 0.1 to 0.4 g/kg (ip) are effective in animal models (Bough and Eagles, 2001; Manent et al., 2007). Three doses of F1,6BP (0.25, 0.5 and 1 g/kg) were tested with this dosing schedule. Two additional groups were administered F1,6BP (0.5 or 1 g/kg, n=5) after pilocarpine. In this experiment, the F1,6BP was given intraperitoneally at the first behavioral seizure, which was chewing movements of the jaw. Two additional sets of animals were fed the classic ketogenic diet (No. F3666; Bio-Serv, Frenchtown, N.J.). One set of animals was given the diet beginning on postnatal day 22-26 (KD-Yng) and maintained on this diet for 4 weeks. Thus the seizures were tested in this group when the animals had reached approximately the same age (50-54 days) as the majority of the animals tested.
The latency to seizure onset, seizure score and seizure duration were averaged across animals in each group. Comparisons between groups were done with an analysis of variance with Bonferroni post hoc test. Statistical difference was defined as p<0.05.

For `O=C(COP(=O)(O)O)[C@@H](O)[C@H](O)[C@H](O)COP(=O)(O)O` [F1,6BP, Fructose-1,6-bisphosphate], the “effect on the seizures” value ([1]; F1,6BP 0.25 g/kg, n=6) was “no effect”, the “animals with no seizures” value ([1]; F1,6BP 0.5 g/kg) was “Two out of 8” and the mean seizure score ([1]; F1,6BP 0.5 g/kg) was 2.5±0.5. For the same compound, the “animals with mild seizures (wet dog shakes or head bobbing)” value ([1]; F1,6BP 0.5 g/kg) was “three”, the “animals with severe seizures” value ([1]; F1,6BP 0.5 g/kg) was 3 and the onset of seizures ([1]; F1,6BP 0.5 or 1 g/kg) was “significantly delayed”. The seizure duration ([1]; F1,6BP 0.5 or 1 g/kg) was “decreased”, the seizure score ([1]; F1,6BP 0.5 or 1 g/kg) was “decreased” and the “animals with no seizures” value ([1]; F1,6BP 1 g/kg) was “Three out of 8”. For the same compound, the “average seizure score for the entire group” value ([1]; F1,6BP 1 g/kg) was 1.4±0.5, the “mean latency to first forelimb clonus” value ([1]; F1,6BP 1 g/kg) was 105 ± 7 min and the “animals with mild seizures (wet dog shakes or head bobbing)” value ([1]; F1,6BP 1 g/kg) was 3. For the same compound, the “animals with severe seizures” value ([1]; F1,6BP 1 g/kg) was 2, the “latency to the seizures” value ([2]; F1,6BP 0.25 g/kg, n=6) was 107 ± 6 s and the seizure duration ([2]; F1,6BP 0.25 g/kg, n=6) was 18 ± 2 s. For the same compound, the “latency to the seizures” value ([2]; F1,6BP 0.5 g/kg, n=6) was 161 ± 16 s, the seizure duration ([2]; F1,6BP 0.5 g/kg, n=6) was 12 ± 1 s and the “animals with no seizures” value ([2]; F1,6BP 1 g/kg) was “Three out of 8”. The “latency to the seizures” value ([2]; F1,6BP 1 g/kg, n=7) was 259 ± 32 s and the seizure duration ([2]; F1,6BP 1 g/kg, n=7) was 11 ± 3 s.
